From patent publication US20160008298A1, “XANTHOHUMOL-BASED COMPOUNDS AND COMPOSITIONS THEREOF, AND METHODS OF MAKING AND USING THE SAME” (Oregon State University, priority 2014, published 2016)

System: rats
Assay: XN administered to rats at human equivalent doses
Assay type: in vivo, rat
Experimental: In particular disclosed embodiments, the human equivalent dose of 180 mg XN/day reduced body weight gain by 14% and reduced fasting plasma glucose by 25% when administered to rats. In some embodiments, the human equivalent dose of 60 or 180 mg XN/day reduced the formation of products of dysfunctional fatty acid oxidation by up to 55% when administered to rats. Solely by way of example, the range 0.1-500 mg described above in Table 2 for XN covers the effective human equivalent doses of 60 mg/day to 180 mg/day of XN.

[1] = human equivalent dose of 180 mg XN/day

In the case of `COc1cc(O)c(CC=C(C)C)c(O)c1C(=O)/C=C/c1ccc(O)cc1` [XN, xanthohumol], the “reduction of body weight gain” value [1] is reported as 14%, the “reduction of fasting plasma glucose” value [1] is reported as 25% and the “reduction of the formation of products of dysfunctional fatty acid oxidation” value (human equivalent dose of 60 or 180 mg XN/day) is reported as “up to 55%”.
